# Results taken from patent US20090304825A1, “ESTROGENIC EXTRACTS FOR USE IN TREATING VAGINAL AND VULVAR ATROPHY” (Bionovo, Inc., priority 2008, published 2009).
# What was measured:
# [1] = molecular target: estrogen receptor beta (ERβ) (Homo sapiens, UniProt Q92731); assay: Estrogen receptor subtype transcriptional activation (studies, method not described); format: cell-based; settings: "Studies have shown"
# [2] = test system: either receptor (ERα, ERβ); assay: Antagonistic effect on estrogen receptors (method not described); format: cell-based
# ERβ [3] = molecular target: T1, ERβ (Homo sapiens, UniProt Q92731); settings: in the presence of ERβ
# TNF-RE tkLuc = assay: Antiestrogen effect on TNF-RE tkLuc; format: cell-based; settings: for effect on the repression induced by E2: TNF-RE tkLuc; for activation of TNF-RE tkLuc: antiestrogens, in contrast to E2
# Description: […]. […] […].
# [4] = test system: both estrogen receptor subtypes; assay: Binding to estrogen receptor subtypes (method not described); settings: "Studies have shown"
# ERβ [5] = molecular target: T1, ERβ; assay: ERE-tk-Luc activation in U2OS osteosarcoma cells co-transfected with ERβ; format: cell-based; parameters: expressed in transfected cells; host or cells: U2OS osteosarcoma cells
# Description: FIGS. 1A-1C. […] (Amarathaceae).
# [6] = several small randomized trials; cited from earlier work
# oopherectomized mice = assay: Intra-vaginal administration to oopherectomized mice, vaginal and endometrial histology; format: in vivo
# Description: The glands form back to back without intervening stroma. […] In one area, the glands arise in what appears to be a polyp with a broad stalk and thick fibrovascular core.
# T1 sequence (Q92731 whole entry): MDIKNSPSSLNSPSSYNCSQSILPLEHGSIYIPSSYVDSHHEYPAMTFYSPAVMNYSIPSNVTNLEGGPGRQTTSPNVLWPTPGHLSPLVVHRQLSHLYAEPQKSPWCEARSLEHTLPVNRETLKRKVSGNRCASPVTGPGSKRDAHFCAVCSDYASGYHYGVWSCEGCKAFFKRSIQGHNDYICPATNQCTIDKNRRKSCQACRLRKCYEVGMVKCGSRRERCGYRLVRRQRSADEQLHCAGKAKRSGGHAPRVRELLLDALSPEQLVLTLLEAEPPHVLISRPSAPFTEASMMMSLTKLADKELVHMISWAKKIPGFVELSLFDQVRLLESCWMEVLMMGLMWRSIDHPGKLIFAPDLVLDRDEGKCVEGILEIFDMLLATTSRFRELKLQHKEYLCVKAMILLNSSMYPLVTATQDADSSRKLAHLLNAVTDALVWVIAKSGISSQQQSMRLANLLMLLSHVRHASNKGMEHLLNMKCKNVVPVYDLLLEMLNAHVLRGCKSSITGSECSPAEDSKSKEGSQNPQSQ
# Chain of estrogen receptor beta (ERβ) (Q92731 whole entry): as above
Compound,ER subtype transcriptional activation [1],antagonistic effect on either receptor [2],effect on the repression induced by E2 (TNF-RE tkLuc),activation of TNF-RE tkLuc (TNF-RE tkLuc),further results
COc1ccc(-c2coc3cc(O)ccc3c2=O)cc1O [Calycosin],ERβ selective transcriptional activation,does not have an antagonistic effect on either receptor,–,–,–
"C[C@]12CC[C@@H]3c4ccc(O)cc4CC[C@H]3[C@@H]1CC[C@@H]2O [E2, estradiol]",–,–,–,–,repression of TNF-α activation of TNF-RE tkLuc (ERβ [3]): 60-80%
"C[C@]12CC[C@@H]3c4ccc(O)cc4C[C@@H](CCCCCCCCC[S+]([O-])CCCC(F)(F)C(F)(F)F)[C@H]3[C@@H]1CC[C@@H]2O (some centres unmarked) [ICI 182, 780]",–,–,abolished the repression induced by E2,2 fold,–
C=CC(/C=C\c1ccc(O)cc1)c1ccc(O)cc1 (centres unmarked) [Nyasol],ERβ transcriptional activation only,does not have an antagonistic effect on either receptor,–,–,"binding affinity to estrogen receptor subtypes [4]: binds with equal affinity to both estrogen receptor subtypes; activation of ERE-tk-Luc relative to estradiol (E2) (ERβ [5]; compared with 10 nM E2): activation equivalent to 10 nM estradiol; activation in the presence of ER antagonists (ERβ [5]; raloxifene (Ral), tamoxifen (Tam), b208 also ICI 182, 780): blocked the activation"
"COc1c(O)cc2c(=O)c3c(oc2c1O)oc1c(O)cccc13 [TCIF, tetracyclic isoflavone]",estrogen receptor beta (ERβ) selective transcriptional activation,does not have an antagonistic effect on either receptor,–,–,–
Oc1ccc2c(c1)CC[C@H](c1ccccc1)[C@@H]2c1ccc(OCCN2CCCC2)cc1 [lasofoxifene],–,–,–,–,vaginal maturation indices and vaginal pH relative to placebo [6]: improvements in vaginal maturation indices and vaginal pH
O=C(c1ccc(OCCN2CCCCC2)cc1)c1c(-c2ccc(O)cc2)sc2cc(O)ccc12 [raloxifene],–,–,abolished the repression induced by E2,2 fold,antagonist effect on the activation by herbal extracts and active ingredients in VG101 (ERβ [5]; ERE-tk-Luc): blocked the activation
CC/C(=C(\c1ccccc1)c1ccc(OCCN(C)C)cc1)c1ccccc1 [tamoxifen],–,–,abolished the repression induced by E2,2 fold,–
estrogen,–,–,–,–,"endometrium histology (oopherectomized mice; mouse model, compared to controls): endomyometrium (the equivalent of complex atypical hyperplasia in women, worrisome for in situ carcinoma); vaginal epithelium histology (oopherectomized mice; oopherectomized mice, intra-vaginal, VG101 0.5 mg/day for 10 days): squamous epithelium with hyperkeratosis"
